# Patent EP4628074A1, “N-PALMITOYLETHANOLAMIDE FOR USE IN COMBINATION WITH A NON-STEROIDAL ANTI-INFLAMMATORY DRUG IN THE TREATMENT OF INFLAMMATORY PAIN” (priority 2024, dated 2025)
# Where “and” joins values, the source holds several entries; their conditions need not be identical. Equal entries are not always repeated. Entries after “also recorded” stand apart in the source; their conditions may differ.
# Tests used:
# [1] = in vivo; cited from earlier work
# [2] = test system: collagen-induced arthritis; assay: Paw volume by plethysmometry in collagen-induced arthritis (CIA) (Experiment 2); type: in vivo, Female Lewis rats; settings: for Pr > F: 2x2 factorial analysis on swelling of the paw, PEA 30 mg/kg, ibuprofen 5 mg/kg, PEA*IBU = interaction (synergy)
# Method: Rheumatoid arthritis is a disease characterized by inflammatory pain, in which the involved joints present swelling, stiffness and often erosive processes. Female Lewis rats were maintained on a 12/12 hour light/dark cycle, at constant temperature and humidity and acclimated for 1 week, with free access to water and standard diet. […] Arthritis score, change in paw volume (mL), and change in body weight (g) were measured as indicators of inflammatory pain. Arthritis severity was measured every other day starting on day 25, using the following score: 0 = no sign of arthritis; 1 = swelling and/or redness of the paw or toe; 2 = two joints involved; 3 = more than two joints involved; and 4 = severe arthritis of the entire paw and toes. The arthritis index for each subject was calculated by adding the four scores of the individual paws. The change in paw volume compared to day 21 was assessed every two days by plethysmometry (Ugo Basile) starting from day 25. The change in weight was measured for each animal on day 21 and then every two days starting from day 25.
# The chosen inflammatory pain indicators were analyzed via Generalized Linear Model (GLM) followed by post-hoc analysis based on Tukey-Kramer correction for multiple comparisons. […] All analyzes were performed using SAS software, version 9.4 (SAS Institute, Cary, NC, USA).
# [3] = test system: inflammatory pain induced by sub-plantar injection of carrageenan; assay: Von Frey filaments, inflammatory pain induced by sub-plantar injection of carrageenan (Experiment 3); type: in vivo, adult male Sprague-Dawley rats
# Method: The experimental inflammatory pain model was induced through a sub-plantar injection of carrageenan (CAR) saline solution (0.1 mL of a 1% suspension of CAR in 0.85% saline). […] The PEA used in this experiment was in unprocessed (native) form. Von Frey filaments were used to evaluate pain, recording for each animal the mechanical tolerance threshold, i.e. the pressure (expressed in grams) endured before retracting the paw. The measurement took place using an analgesimeter (Ugo Basile, Comerio, Varese, Italy) and was conducted before the sub-plantar injection of the CAR and at the time of maximum damage (5 hours later).
# The effect on pain was analyzed using Generalized Linear Model (GLM) followed by post-hoc analysis based on Tukey-Kramer correction for multiple comparisons. […] All analyses were performed using SAS software, version 9.4 (SAS Institute, Cary, NC, USA). P value < 0.05 was considered significant.
# [4] = test system: CFA-induced inflammatory pain; assay: Paw pressure test, CFA-induced inflammatory pain, single (acute) oral administration (Experiment 1); type: in vivo, male Sprague-Dawley rats; settings: for Pr > F: PEA 10 mg/kg
# Excerpt: In the in vivo experimentation, male Sprague-Dawley rats (200-250 g) (Envigo, Varese, Italy) fed "ad libitum" and housed in cages with a controlled sleep/wake cycle were used.
# Before the start of the study, the animals were subjected to a 1-week acclimatization period at the Center for Laboratory Animal Sheltering (Ce.S.A.L.) of the University of Florence, following all experimental procedures and protocols compliant with the principles of care and welfare of laboratory animals approved by the Italian Ministry of Health (Italian Legislative Decree 2014/26), European directives (EU Directive 2010/63) and the ARRIVE guidelines.
# In order to cause inflammatory pain, Complete Freund's Adjuvant (CFA) was injected at a rate of 50 µL into the joint cavity of the left leg between the tibiofibular and tarsal bones after light anesthesia with 2% isoflurane. The control group was subjected to the same procedure, injecting an equal volume of saline solution (vehicle).
# The animals were divided into 9 groups of 6 rats each and treated acutely per os with a single administration, starting from the seventh day after the induction of joint damage. • Group 1: healthy rats subjected to intra-articular injection of saline (vehicle group) • Group 2: rats injected with CFA and treated with 1% CMC, corresponding to the vehicle in which the compounds for the treatments of the following groups were suspended (CFA group); • Group 3: rats injected with CFA and treated with micronized PEA 10 mg/kg; • Group 4: rats injected with CFA and treated with diclofenac 30 mg/kg; • Group 5: rats injected with CFA and treated with diclofenac 3 mg/kg; • Group 6: rats injected with CFA and treated with diclofenac 3 mg/kg + micronized PEA 10 mg/kg; • Group 7: rats injected with CFA and treated with meloxicam 30 mg/kg; • Group 8: rats injected with CFA and treated with meloxicam 3 mg/kg; • Group 9: rats injected with CFA and treated with meloxicam 3 mg/kg + micronized PEA 10 mg/kg.
# All animals were subjected to the paw pressure test at the level of the ipsilateral paw, performed before (T0) or after 15, 30, 45 and 60 minutes after the single administration of the treatment (T15, T30, T45 and T60, respectively). In particular, the nociceptive threshold was calculated with an analgesiometer (Ugo Basile, Varese, Italy) by applying an increasing pressure at constant speed (32 g/s) by means of a non-pointed conical support on the dorsal surface of the ipsilateral paw with respect to the injection of CFA (or vehicle). The nociceptive threshold was expressed as the force (in decagrams, dag) to which the animal reacts by retracting the paw or vocalizing (Leighton GE et al. kappa-Opioid agonists produce antinociception after i.v. and i.c.v. but not intrathecal administration in the rat. Br J Pharmacol. 1988; 93: 553-60).
# The values emerged from the paw pressure test in the different treatment groups were compared with each other using the Generalized Linear Mixed Model (GLMM) followed by post-hoc analysis based on Tukey-Kramer correction for multiple comparisons, referring to the single treatment group, considering all the times.
# The AUC was analyzed by a two-way factor analysis of variance (2x2 ANOVA), after plotting the mean values, according to the procedure shown by Slinker BK. The statistics of synergism. J Mol Cell Cardiol. 1998 Apr;30(4):723-31. The values were expressed as mean ± standard error mean (SEM). All the statistical analyses were carried out using the software SAS, version 9.4 (SAS Institute, Cary, NC, USA). The value p < 0.05 was considered significant.
structure (smiles),measurement,setting,value
"CCCCCCCCCCCCCCCC(=O)NCCO [PEA, N-palmitoylethanolamide]",dose free of acute and sub-chronic toxicity,[1],≥ 1000 mg/kg daily
same,Pr > F,[2]; 6° giorno di trattamento,"0,0002"
same,Pr > F,[2]; 8° giorno di trattamento,"<0,0001"
same,Pr > F,[2]; 10° giorno di trattamento,"<0,0001"
same,effect on paw volume increase,[2]; single administration of PEA 30 mg/kg or ibuprofen 5 mg/kg (not combined),had no effect
same,Pr > F,"[3]; 2x2 factorial analysis on tolerance threshold (Von Frey), native PEA 100 mg/kg, ibuprofen 5 mg/kg, PEA*Ibu = interaction (synergy)","0,0046"
same,mechanical tolerance threshold compared to the vehicle-treated group,"[3]; single oral administration 30 minutes before carrageenan, measured 5 hours later, unprocessed (native) PEA 100 mg/kg and/or ibuprofen 5 mg/kg",inactive dose
same,Pr > F,"[4]; ANOVA 2x2 on AUC of paw pressure test (Figure 2), diclofenac 3 mg/kg, line PEA*Dicl 3 = interaction (synergy)",0.0002
same,Pr > F,"[4]; ANOVA 2x2 on AUC of paw pressure test (Figure 4), meloxicam 3 mg/kg, line PEA*Mel 3 = interaction (synergy)",0.0003
same,p with respect to the CFA group (pain tolerance threshold),"[4]; CFA-injected rats, single per os administration on day 7, micronized PEA 10 mg/kg and/or NSAID 3 mg/kg, GLMM with Tukey-Kramer",0.9674 and 0.9588
same,pain tolerance threshold with respect to the CFA group,"[4]; CFA-injected rats, single per os administration on day 7 after CFA, micronized PEA 10 mg/kg and/or NSAID 3 mg/kg, T0-T60 min, all times considered",no significant difference; also recorded: no significant effect
